Usually solubility stands for the dissolved amount per volume that the medium holds. What is called Tmax is the time from dosing to the highest level. Usually AUC stands for the area under the concentration-time curve, a measure of exposure.

We go through seven molecules from US20250017886A1, “FORMULATIONS AND METHODS FOR INCREASING CREATININE LEVELS IN PLASMA, EXTRACELLULAR FLUID AND/OR INTRACELLULAR COMPARTMENTS” (Vireo Systems, Inc., priority 2023, published 2025).

Structures are written as SMILES. Converted amounts (≈) assume the structure as drawn. “Also recorded” adds a separate entry of the source. Structures can show the parent of a compound that is named as a salt.

Data set [1] is described as follows: Saturated aqueous solubility determination (HPLC). In kind it is physicochemical. To be noted: for Ratio (relative to CM): solubility relative to creatine monohydrate; for solubility at 1.5 h: thermodynamic from solid, deionized water, 25° C. The protocol: After 1.5 hour, the saturated solutions were vortexed and 2-ml aliquots removed and centrifuged in microcentrifuge tubes at 11,000 rpm for 5 min. Concentrations were analyzed by HPLC by diluting 500 μL of supernatant with mobile phase (500 μL). The mean±standard deviation of the saturation solubility for each antiviral therapeutic compound is calculated from the corresponding standard curves.

Data set [2] in a line: Rat PK study, plasma levels after creatinine pronutrient dosing. In kind it is in vivo, sprague-dawley male rats. The protocol: A rat PK study was performed to determine resulting plasma creatinine levels following creatinine pronutrient dosing. […] Levels of creatine, creatinine pronutrient, and creatinine in the plasma were measured over time. In this study, the specific creatinine pronutrient used was creatine ethyl ester hydrochloride. Blood samples were collected over a 4-hour period via femoral artery catheter. Muscle and brain tissue were collected at the end of the study. Liquid chromatography-mass spectrometry (LCMS) was used for analysis of samples. The area under the plasma concentration curve following oral dosing was compared to that obtained following IV administration. The creatinine pronutrient formulation data in Table 4 was generated from the creatinine data gathered in Example 4 using allometric dosing to determine the human dose equivalent for the labeled creatinine pronutrient (for a 70 kg human). In order to assess the relative bioavailability of the formulations (and to correct for the slightly different doses administered with various forms due to the different molecular weights), the AUC plasma uptake values observed for creatinine and the creatinine pronutrient formulation were entered into the following equation to produce a ratio: […]

The target of the next data set is COX1 (Homo sapiens, UniProt P23219). The data set can be described thus: COX activity, COX1. In kind it is biochemical. An excerpt:
(§1) The effects of the creatinine pronutrient on PGE2 release was not due to the inhibition of prostaglandin synthesis through cyclooxygenase (COX) as production of prostaglandins by either COX1 or COX2 was unaffected by CEE.

The target in a further data set is T1, COX2 (Homo sapiens, UniProt P35354).
T1 sequence (P35354 18-604): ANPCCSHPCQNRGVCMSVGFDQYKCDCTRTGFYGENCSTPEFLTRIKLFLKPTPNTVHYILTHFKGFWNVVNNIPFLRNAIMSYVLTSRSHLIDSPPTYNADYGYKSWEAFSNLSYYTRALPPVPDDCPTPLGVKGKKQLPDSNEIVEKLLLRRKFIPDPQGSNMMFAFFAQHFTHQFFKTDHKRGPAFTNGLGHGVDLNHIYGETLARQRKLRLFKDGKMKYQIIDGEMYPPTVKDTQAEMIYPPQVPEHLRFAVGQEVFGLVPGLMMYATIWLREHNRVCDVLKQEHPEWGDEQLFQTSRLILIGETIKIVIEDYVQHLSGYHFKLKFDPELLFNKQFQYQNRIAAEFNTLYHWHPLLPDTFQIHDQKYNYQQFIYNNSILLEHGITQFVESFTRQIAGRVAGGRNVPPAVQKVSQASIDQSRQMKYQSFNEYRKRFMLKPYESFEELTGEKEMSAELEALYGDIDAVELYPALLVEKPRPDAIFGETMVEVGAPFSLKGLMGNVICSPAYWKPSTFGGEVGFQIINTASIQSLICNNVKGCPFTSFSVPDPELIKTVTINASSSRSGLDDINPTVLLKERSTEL
Kind of data set: COX activity, COX2. In kind it is biochemical.
Source text: as §1

In data set [3] the test system is hCMEC/d3 (human brain endothelial cells). Kind of data set: Bradykinin-induced permeability in microfluidic BBB culture model. In kind it is cell-based. As to conditions: 1 mM CEE pretreatment 1-hour. As to the method: In an effort to determine the impact/effectiveness of creatinine pronutrient formulations made in accordance with the present disclosure, studies examined bradykinin-induced effects on endothelial permeability using a microfluidic blood-brain barrier (BBB) culture model consisting of hCMEC/d3 (human brain endothelial cells) grown on Mimeta microfluidic plates. More specifically, permeability studies were performed using the microfluidic BBB culture model under control conditions and following exposure to a low dose (10 nM) or high dose (10 μM) of bradykinin in either the presence or absence of creatine ethyl ester hydrochloride (CEE) as the creatinine pronutrient.
hCMEC/d3 cells in Mimeta microfluidic plate were pretreated for 1 hour with media or media+1 mM CEE. Thereafter, the cells were treated with a low concentration (10 nM) or high concentration (10 μM) of bradykinin. The permeability of a fluorescent dye (IRdye 800) was assessed after 30 minutes.

The next data set relates to hBMEC/d3 cells. Kind of data set: Bradykinin-induced prostaglandin E2 release (PGE2 ELISA). In kind it is cell-based. As to conditions: for inhibition of prostaglandin (PGE2) release: 1.0 mM, 1-hour preincubation, 10 μM bradykinin, at 6 and 24 hours, compared with 10 μM HOE 140. The protocol:
In an effort to determine the impact/effectiveness of creatinine pronutrient formulations made in accordance with the present disclosure on decreasing prostaglandin release over a 24-hour period due to bradykinin exposure, hBMEC/d3 cells were pre-treated with a creatinine pronutrient of the present disclosure and then exposed to 10 μM bradykinin. More specifically, hBMEC/d3 cells were grown on T25 flasks to confluency. Media was removed and exchanged with endothelial cell media containing 0.1% BSA and (1) 1.0 mM CEE, (2) 1.0 mM creatine t-butyl ester hydrochloride (CtB), or (3) 10 μM HOE 140 (a known BR2 receptor antagonist). After a 1-hour incubation, bradykinin (10 μM) was added and samples of media removed and assayed for prostaglandin E2 (PGE2) at 3, 6 and 24 hours. The amount of PGE 2 secreted into the media by the cells was determined using a PGE2 ELISA and normalized to cell lysate protein content.
(In general: ELISA stands for enzyme-linked immunosorbent assay.)

For data set [4] the following is noted: human, oral 3 grams creatinine given with 3 grams creatine nitrate; cited from earlier work.
The conditions of data set [5]: cited from earlier work.
Data set [6] can be described thus: Human single oral dose pharmacokinetics of creatinine (Ostojic et al. 2019). In kind it is in vivo. As to conditions: plasma, oral 3 grams creatinine given with 3 grams creatine nitrate, computed from literature data, read-out: AUC(0-120m) (converted). An excerpt:
The creatinine data in Table 4 was generated from the data provided in Ostojic et al., Food Sci Nutr. 2019. […] In order to assess the relative bioavailability of the formulations (and to correct for the slightly different doses administered with various forms due to the different molecular weights), the AUC plasma uptake values observed for creatinine and the creatinine pronutrient formulation were entered into the following equation to produce a ratio: […]

Data set [7] concerns hCMEC/d3 microfluidic culture model. Kind of data set: Permeability of microfluidic BBB model treated with cancer patient plasma. To be noted: for permeability coefficient: 1 mM CtB. In kind it is cell-based, human.
Data set [8] relates to human brain endothelial cells (HCMEC/d3). Kind of data set: Creatinine uptake in HCMEC/d3 cells. In kind it is cell-based. To be noted: HCMEC/d3, 1 mM, 3-hour period. As to the method:
In an effort to determine the impact/effectiveness of a formulation made in accordance with the present disclosure on increasing creatinine delivery, different cell types were exposed to several of the formulations in Example 1. More specifically, cellular uptake studies were performed for formulations including CEE and CtB from Example 1. […] In other words, it remains unknown where there is a transporter involved in the accumulation of creatinine. Without being bound by any particular theory, if a transporter is involved for accumulation of creatinine, it may be the organic cation transporter 2 (OCT2) found in kidney tubule epithelial cells. The various cell lines discussed above were first exposed to 1 mM of creatinine (CRN), CEE, and CtB at 37° C. for a 3-hour incubation period at a pH 7.4. After incubation, the assay buffer was collected. The cells were then washed rapidly three times with ice-cold phosphate-buffered saline solution. […] More specifically, the creatinine content in cell lysates was determined using QuantichromTM Creatinine Assay Kit (DICT 500) from Bioassay Systems (Hayward, CA). The assay quantitatively measures creatinine without any pretreatment through an optimized Jaffe method. […] The intensity of the red, measured at 510 nm, is directly proportional to the concentration of creatinine in the sample. […]

In data set [9] the test system is human colon epithelial (Caco-2). Kind of data set: Creatinine uptake in Caco-2 cells. To be noted: Caco-2, 1 mM, 3-hour period; hydrochloride. In kind it is cell-based.
[10] abbreviates: rat, after 10 or 70 mg/kg oral or 10 mg/kg IV creatinine pronutrient.

COX1, sequence (P23219 24-599): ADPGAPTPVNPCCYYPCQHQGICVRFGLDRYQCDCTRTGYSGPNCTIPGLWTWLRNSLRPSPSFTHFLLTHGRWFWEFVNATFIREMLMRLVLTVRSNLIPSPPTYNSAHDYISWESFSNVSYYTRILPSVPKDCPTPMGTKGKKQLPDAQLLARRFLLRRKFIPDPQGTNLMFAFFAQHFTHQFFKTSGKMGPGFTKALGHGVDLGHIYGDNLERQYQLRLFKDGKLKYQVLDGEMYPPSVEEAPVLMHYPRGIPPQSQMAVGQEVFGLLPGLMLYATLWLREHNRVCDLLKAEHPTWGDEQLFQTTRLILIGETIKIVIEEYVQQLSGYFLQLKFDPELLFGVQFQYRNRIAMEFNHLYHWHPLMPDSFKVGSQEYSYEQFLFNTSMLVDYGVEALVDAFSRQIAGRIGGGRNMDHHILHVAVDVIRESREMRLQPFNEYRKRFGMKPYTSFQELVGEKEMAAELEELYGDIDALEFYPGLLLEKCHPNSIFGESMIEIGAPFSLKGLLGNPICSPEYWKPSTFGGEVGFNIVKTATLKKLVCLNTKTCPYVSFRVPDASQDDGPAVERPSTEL

Consider `CC(C)CCOC(=O)CN(C)C(=N)N` [Creatine Isopentyl Ester HCl, creatine isopentyl ester hydrochloride], for which, in [1], the “Ratio (relative to CM)” value is reported as over 29 and the solubility at 1.5 h is over 600 mg/mL.
Turning to `CCOC(=O)CNC(=O)CN(C)C(=N)N` [Creatine Glycinamide Ethyl Ester HCl, creatine glycinamide ethyl ester], in data set [1], the “Ratio (relative to CM)” value was over 29 and the solubility at 1.5 h was over 600 mg/mL.
In the case of `CCOC(=O)CN(C)C(=N)N` [CEE, creatine ethyl ester hydrochloride], the “creatinine delivered to the plasma as compared to creatinine” value in data set [2] (high and low doses) is “twice as much”. For the same molecule, in [2] (setting [10]), the “creatine in plasma samples” value is “no detectable amount” and the “creatinine pronutrient in plasma samples” value is on record as “Small but measurable amounts”. Further, in [2] (rat, after creatinine pronutrient dosing, especially at the high dose), the “creatinine in plasma samples” value is “Substantial levels”. For the same molecule, the “production of prostaglandins by COX1” value at COX1 is “unaffected”. For the same molecule, at COX2, the “production of prostaglandins by COX2” value is recorded as “unaffected”. Moreover, in [1], the “Ratio (relative to CM)” value is over 9 and the solubility at 1.5 h amounted to 205 mg/mL. Moreover, the “permeability coefficient of IRdye 800” value in data set [3] (then 10 nM bradykinin (1.05×10^−8 without CEE)) stood at 0.00343 ×10⁻⁶ cm/s. In [3] (then 10 μM bradykinin (2.90×10^−8 without CEE)), the “permeability coefficient of IRdye 800” value was found to be 0.0142 ×10⁻⁶ cm/s. Moreover, in the data set on hBMEC/d3 cells, the “PGE release in response to bradykinin” value is on record as “prevents PGE release” and the “inhibition of prostaglandin (PGE2) release” value is “as effective at inhibiting prostaglandin release as the known BR2 receptor antagonist HOE 140”.
On to `CN(CC(=O)OC1CCCCC1)C(=N)N` [Creatine Cyclohexyl Ester Tosylate, creatine cyclohexyl ester], for which, in [1], the “Ratio (relative to CM)” value is listed as under 1.0 and the solubility at 1.5 h was in the range of 15 to 20 mg/mL.
Taken in the same sequence, the figures for `CCOC(=O)CCNC(=N)N` [Ethyl (α-guanido-methyl) ethonoate, ethyl (α-guanido-methyl) ethanoate] were over 8 and 178 ± 7.2 mg/mL (≈ 1120 mM).
As for `CN1CC(=O)NC1=N` [Creatinine, creatinine], in [4], the “Cmax (plasma creatinine)” value was 15300 ng/mL, the “Cmin (plasma creatinine)” value was 11300 ng/mL and the Tmax was 1 h. In data set [5], the solubility is 23 mg/mL (≈ 203 mM). Besides, the AUC in data set [6] is 4600 ng·h/mL.
Regarding `CN(CC(=O)OC(C)(C)C)C(=N)N.Cl` [CtB, creatine tert-butyl ester hydrochloride], the permeability coefficient in data set [7] (breast cancer patient CF80 6 month plasma, 24-hour treatment (2.78×10^−8 without CtB)) is 0.00963 ×10⁻⁶ cm/s; in [7] (breast cancer patient CF80 baseline plasma, 24-hour treatment (1.06×10^−8 without CtB)), 0.00297 ×10⁻⁶ cm/s. In addition, in [7] (addition of 1 mM), the “permeability increases produced by plasma samples from cancer patients” value is recorded as “attenuated”. Also, the “creatinine accumulation compared with 1 mM creatinine” value in data set [8] is “greater”; in [9], “greater; also recorded: almost double”. The “Ratio (relative to CM)” value in [1] was at least 18. For the same molecule, the solubility at 1.5 h in [1] came to 389 mg/mL. Further, in the data set on hBMEC/d3 cells, the “inhibition of prostaglandin (PGE2) release” value is given as “as effective at inhibiting prostaglandin release as the known BR2 receptor antagonist HOE 140”.
